# Tested on: patients in treatment for chronic neuropathic pain
# Test: 42 patient physician-sponsored open label clinical study of the compounded transdermal formulation
# Type: in vivo
# Conditions: about 1/4 gm applied to site of pain twice a day; overall trial 18 months
# Experimental: A number of examples of formulations of the invention were made. The formulations were used in the 42 patient open-label study of Example 2 and applied under “Cannacreme-C” 60 gm.
# A 42 patient open label clinical study was performed as a physician sponsored study of patients in treatment for chronic pain with different diagnoses.
# Patients ranged in age from 30 to 70 years old and were both male and female. […]
# Outcome measures included a patient's own subjective report, clinician's notes, as well as questionnaires such as the McGill Pain Questionnnaire (Melzack R., Pain. 1:277-299, 1975), Fibromyalgia impact Questionnaire (Burckhardt, C. S. et al., J. Rheumatol. 18:728-733, 1991), Visual Analogue Pain Rating Scale (such as reviewed in Wewers M. E. and Lowe N. K. Res. Nursing Health 13:227-236, 1990), and Likert Pain Scales (Likert, R. Arch. Psychol. 140: 55, 1932). Objective electrophysiological monitoring including Quantitative Sensory Testing, Electromyogram, and Nerve Conduction Studies, as required from patient to patient. […]
structure (smiles),measurement,value
"CCCCCCC(C)(C)c1cc(O)c2c(c1)OC(C)(C)C1CCC(=O)CC21 (stereo not shown) [Nabilone, 3-(1,1-dimethylheptyl)-6,6a,7,8,10,10a-hexahydro-1-hydroxy-6,6-dimethyl-9H-dibenzo[b,d]pyran-9-one]","local site sensitization, irritation or Adverse Drug Reaction",no reports of local site sensitization or irritation
